Patent US20130217892A1, “Use Of N-Substituted 2-Pyrrolidone-4-Carboxylic Acid Esters And Solvents” (CLARIANT FINANCE (BVI) LIMITED, priority 2010, published 2013)

Assay: Solubilities of pesticides in compounds of the formula (1)
Assay type: physicochemical
Protocol: The solubilities of various pesticides were determined in various compounds of the formula (1) at 25° C. All data are in % by weight (Table 1).

CCCCOC(=O)C1CC(=O)N(C)C1 (centres unmarked) [example 3, N-Butyl N-Methyl-2-Pyrrolidone-4-Carboxylate]
Solubility of Pendimethalin in the compound of the formula (1): 38.9 % by weight
Solubility of Tebuconazole in the compound of the formula (1): 37.0 % by weight
Solubility of Triadimefon in the compound of the formula (1): 43.0 % by weight
Solubility of Trifloxystrobin in the compound of the formula (1): 30.1 % by weight
Solubility of Trifluralin in the compound of the formula (1): 57.4 % by weight
